PubChem BioAssay AID488788 (Broad Institute, 2010)
Inconclusive results are not listed. Activity calls are given as the source filed them. The rule behind the calls is not given here.

Each molecule was assayed against CAAX prenyl protease 2 (Saccharomyces cerevisiae (strain ATCC 204508 / S288c)) (UniProt Q03530) (assay: yeast Rce1 CAAX endoprotease inhibition – biochemical, plate reader, cherry-pick, dose response (AID 488788)). Settings: Rce1p enzyme activity, at 10 µM (top of the series).
CAAX prenyl protease 2 (Saccharomyces cerevisiae (strain ATCC 204508 / S288c)), sequence (Q03530 whole entry, looked up): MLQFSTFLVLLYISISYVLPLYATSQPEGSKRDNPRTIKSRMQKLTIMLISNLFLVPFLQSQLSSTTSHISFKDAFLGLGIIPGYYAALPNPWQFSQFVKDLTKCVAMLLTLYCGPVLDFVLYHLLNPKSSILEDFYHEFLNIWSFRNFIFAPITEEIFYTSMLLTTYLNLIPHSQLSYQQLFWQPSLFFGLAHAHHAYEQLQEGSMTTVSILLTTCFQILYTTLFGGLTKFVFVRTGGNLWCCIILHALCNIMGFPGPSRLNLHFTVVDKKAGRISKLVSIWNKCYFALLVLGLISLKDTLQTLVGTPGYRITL
For `COc1cc2c(cc1OC)C(C)N(C(=O)CCNC(=O)c1ccccc1)CC2` (stereo not drawn), the “activity change, negative = inhibition” value was “inactive”.
For `CN(C)c1ccc(/C=N/NC(=O)C(O)c2ccc(Br)cc2)cc1` (stereo not drawn), the “activity change, negative = inhibition” value was “inactive”.
With `Cc1cc(N2CCOCC2)n2cc(-c3ccccc3)nc2n1` the “activity change, negative = inhibition” value was “inactive”.
`CSc1ccc(/C=C/C(=O)OCC(=O)NC(C)C)cc1` was tested, and the “activity change, negative = inhibition” value was “inactive”.
For `CCn1nc(C)cc1C(=O)NC1CC(C)(C)Cc2c1cnn2-c1cccc(F)c1` (stereo not drawn), the “activity change, negative = inhibition” value was “inactive”.
With `CCCCNC(=O)c1cc2c(=O)n3cccc(C)c3nc2n(Cc2ccccc2)c1=N` the “activity change, negative = inhibition” value was “inactive”.
In the case of `COC(C/C=C/[C@H](O)[C@@H](C)OCc1ccccc1)OC`, the “activity change, negative = inhibition” value was “inactive”.
For `Cc1cc2cc(C#N)c(NCCNC(=S)NCCCN3CCOCC3)nc2cc1C`, the “activity change, negative = inhibition” value was “inactive”.
For `O=C1NC(c2ccc(Br)cc2)Nc2ccccc21` (stereo not drawn), the “activity change, negative = inhibition” value was “inactive”.
`N=C(N)c1ccc(/C=C/c2ccc(C(=N)N)cc2O)cc1` was tested, and the “activity change, negative = inhibition” value was “inactive”.
In the case of `Cc1cccc(N2C(=O)c3cccc4c(N5CCCCC5)c([N+](=O)[O-])cc(c34)C2=O)c1C`, the “activity change, negative = inhibition” value was “inactive”.
`COc1ccc(CC(=O)OCC(=O)Nc2ccc(Br)cc2)cc1` was tested, and the “activity change, negative = inhibition” value was “inactive”.
For `COc1cccc(-c2nc(C#N)c(N3CCN(C(=O)c4ccco4)CC3)o2)c1`, the “activity change, negative = inhibition” value was “inactive”.
`COc1ccc2oc(-c3ccccc3)c(C(=O)N3CCOCC3)c2c1` was tested, and the “activity change, negative = inhibition” value was “inactive”.
`COc1ccc2c3c([nH]c2c1)C(C)=NCC3` was tested, and the “activity change, negative = inhibition” value was “inactive”.
`Cc1ccc(C(=O)N2N=C(c3ccccc3O)CC2c2ccccc2)cc1` (stereo not drawn) was tested, and the “activity change, negative = inhibition” value was “inactive”.
In the case of `Oc1ccc(-c2cn3cc(C(F)(F)F)ccc3n2)cc1`, the “activity change, negative = inhibition” value was “inactive”.
In the case of `CCn1c(COc2cccc(C)c2)nnc1SCC(=O)NC1CCCC1`, the “activity change, negative = inhibition” value was “inactive”.
With `Cc1nc2c(C)cccn2c(=O)c1NC(=O)COc1ccccc1` the “activity change, negative = inhibition” value was “inactive”.
With `CCOC(=O)c1sc2nc(C3CC3)cc(-c3ccc(F)cc3)c2c1N` the “activity change, negative = inhibition” value was “inactive”.
With `COc1ccc(Cc2nc3ccc(C(=O)N4CCCC4)cc3o2)cc1` the “activity change, negative = inhibition” value was “inactive”.
In the case of `C/C(CC(=O)NCc1ccco1)=N\NC(=O)c1ccc([N+](=O)[O-])cc1Cl`, the “activity change, negative = inhibition” value was “inactive”.
In the case of `COc1cc(-c2nc3ccccn3c2/N=C/c2cc(OC)c(OC)c(OC)c2)ccc1O`, the “activity change, negative = inhibition” value was “inactive”.
With `O=S(=O)(CC(CN1CCOCC1)N1CCOCC1)c1ccccc1` (stereo not drawn) the “activity change, negative = inhibition” value was “inactive”.
`O=C(NCC1CC1)c1ccc(Nc2nc3ccc(Br)cc3[nH]2)cc1` was tested, and the “activity change, negative = inhibition” value was “inactive”.
With `Cc1ccc(C(=O)c2c3ccccc3[n+]([O-])n2CCO)cc1` the “activity change, negative = inhibition” value was “inactive”.
`Nc1c(C(=O)NCc2ccccc2)sc2nc(N3CCOCC3)c3c(c12)CCCC3` was tested, and the “activity change, negative = inhibition” value was “inactive”.
`COc1ccc(OC)c(NC(=O)c2cc3oc4ccccc4c3cc2O)c1` was tested, and the “activity change, negative = inhibition” value was “inactive”.
With `CCn1c(C)nc2c(=O)oc3ccccc3c21` the “activity change, negative = inhibition” value was “inactive”.
`Cn1c(CCNS(=O)(=O)c2ccccc2)nnc1SCc1cccnc1` was tested, and the “activity change, negative = inhibition” value was “inactive”.
`COc1cc(-c2nc3ccccn3c2/N=C/c2cccc(OC)c2O)ccc1O` was tested, and the “activity change, negative = inhibition” value was “inactive”.
For `Cc1nc(N2CCOCC2)c2c(C)c(C(=O)Nc3ccccc3C(F)(F)F)sc2n1`, the “activity change, negative = inhibition” value was “inactive”.
With `Cc1c(C)c2ccc(OC(C)C(=O)NCCCN3CCOCC3)c(C)c2oc1=O` (stereo not drawn) the “activity change, negative = inhibition” value was “inactive”.
